The source made the active and inactive calls. The calls are words filed in the database; no cut-off is given here.
Experiments:
Mushroom tyrosinase [1] = target: T1, Mushroom tyrosinase (Agaricus bisporus, UniProt O42713+Q00024+C7FF04+C7FF05); test: Inhibition of Agaricus bisporus tyrosinase using L-dopa as substrate preincubated with compound for 20 mins followed by substrate addition measured after 5 mins by absorbance based assay
Mushroom tyrosinase [2] = target: T1, Mushroom tyrosinase; test: Inhibition of Agaricus bisporus tyrosinase using L-tyrosine as substrate preincubated with compound for 20 mins followed by substrate addition measured after 10 mins by absorbance based assay
A-375 [3] = test: Cytotoxicity against human A-375 cells at 50 uM incubated for 72 hrs by MTT assay; type: toxicity, cell-based; conditions: a-375, 72 h
A-375 [4] = test: Anti-melanogenic activity against alpha-MSH-stimulated human A-375 cells assessed as decrease in melanin content at 20 uM incubated for 24 hrs by absorbance based assay; type: functional, cell-based
[5] = Permeability in pig skin explant Franz diffusion cell model assessed as compound remaining intradermal at 2 mg/ml, TOPp measured after 4 hrs by HPLC analysis; type: ADME, tissue-based, Sus scrofa, Skin of body; conditions: topical_or_ocular
[6] = Permeability in pig skin explant Franz diffusion cell model assessed as compound remaining transdermal at 2 mg/ml, TOPp measured for 0.5 to 24 hrs by HPLC analysis; type: ADME, tissue-based, Sus scrofa, Skin of body; conditions: topical_or_ocular, time 0.5-24 hrs
B16-F10 [7] = test: Anti-melanogenic activity against alpha-MSH-stimulated mouse B16-F10 cells assessed as decrease in melanin content incubated for 24 hrs by absorbance based assay; type: functional, cell-based; conditions: dose 5-25 µM
B16-F10 [8] = test: Downregulation of MiTF level in mouse B16-F10 cells incubated for 72 hrs by Western blot analysis; type: functional, cell-based; conditions: dose 0.1-2 µM
Cavia porcellus [9] = test: Anti-melanogenic activity in guinea pig model of UV-induced skin pigmentation assessed as reduction in melanin production at 1 mM administered topically as PG formulation for 2 weeks measured after 3 days by Fontana-Masson staining based analysis; type: functional, organism-based; conditions: time 17.0 day
B16-F10 [10] = test: Cytotoxicity against mouse B16-F10 cells at 50 uM incubated for 72 hrs by MTT assay; type: toxicity, cell-based; conditions: b16-f10, 72 h
[11] = Permeability in pig skin explant Franz diffusion cell model assessed as compound remaining intradermal at 2 mg/ml, TOPp measured after 2 hrs by HPLC analysis; type: ADME, tissue-based, Sus scrofa, Skin of body; conditions: topical_or_ocular
Cavia porcellus [12] = test: Anti-melanogenic activity in guinea pig model of UV-induced skin pigmentation assessed as inhibition of melanin production administered topically for 2 weeks measured after 3 days by Fontana-Masson staining based analysis; type: functional, organism-based; conditions: time 17.0 day
B16-F10 [13] = test: Downregulation of TYR in mouse B16-F10 cells incubated for 72 hrs by Western blot analysis; type: functional, cell-based; conditions: dose 0.1-2 µM
Cavia porcellus [14] = test: Anti-melanogenic activity in guinea pig model of UV-induced skin pigmentation assessed as healing of scorching skin administered topically for 2 weeks measured after 3 days by Fontana-Masson staining based analysis; type: functional, organism-based; conditions: dose 0.5-1 mM, time 17.0 day
[15] = Drug distribution in pig skin epidermis at 2 mg/ml, TOPp measured after 2 hrs by OrbiSIMS imaging analysis; type: ADME, tissue-based, Sus scrofa; conditions: topical_or_ocular
[16] = target: T2, Tyrosinase (Homo sapiens) (UniProt P14679); test: Inhibition of TYR in alpha-MSH-stimulated human A-375 cells using L-Dopa as substrate at 20 uM incubated for 24 hrs by absorbance based assay; type: cell-based
T2 sequence (whole entry): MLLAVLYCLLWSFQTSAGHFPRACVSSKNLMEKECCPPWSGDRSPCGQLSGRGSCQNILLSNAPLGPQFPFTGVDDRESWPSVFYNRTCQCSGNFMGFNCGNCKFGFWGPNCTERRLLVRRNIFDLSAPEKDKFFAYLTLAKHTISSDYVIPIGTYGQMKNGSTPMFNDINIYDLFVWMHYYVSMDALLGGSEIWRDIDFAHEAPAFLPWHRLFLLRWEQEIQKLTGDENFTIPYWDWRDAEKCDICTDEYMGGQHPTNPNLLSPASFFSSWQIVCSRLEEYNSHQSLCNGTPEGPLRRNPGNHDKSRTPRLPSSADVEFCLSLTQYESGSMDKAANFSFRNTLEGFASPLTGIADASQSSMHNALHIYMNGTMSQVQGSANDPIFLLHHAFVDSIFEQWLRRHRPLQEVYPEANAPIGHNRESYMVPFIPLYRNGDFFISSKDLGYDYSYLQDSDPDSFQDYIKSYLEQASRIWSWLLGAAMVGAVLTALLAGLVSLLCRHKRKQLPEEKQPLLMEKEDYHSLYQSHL

[17] = target: T3, Tyrosinase (Mus musculus) (UniProt P11344); test: Inhibition of TYR in alpha-MSH-stimulated mouse B16-F10 cells using L-Dopa as substrate incubated for 24 hrs by absorbance based assay; type: cell-based; conditions: dose 5-25 µM
T3 sequence (whole entry): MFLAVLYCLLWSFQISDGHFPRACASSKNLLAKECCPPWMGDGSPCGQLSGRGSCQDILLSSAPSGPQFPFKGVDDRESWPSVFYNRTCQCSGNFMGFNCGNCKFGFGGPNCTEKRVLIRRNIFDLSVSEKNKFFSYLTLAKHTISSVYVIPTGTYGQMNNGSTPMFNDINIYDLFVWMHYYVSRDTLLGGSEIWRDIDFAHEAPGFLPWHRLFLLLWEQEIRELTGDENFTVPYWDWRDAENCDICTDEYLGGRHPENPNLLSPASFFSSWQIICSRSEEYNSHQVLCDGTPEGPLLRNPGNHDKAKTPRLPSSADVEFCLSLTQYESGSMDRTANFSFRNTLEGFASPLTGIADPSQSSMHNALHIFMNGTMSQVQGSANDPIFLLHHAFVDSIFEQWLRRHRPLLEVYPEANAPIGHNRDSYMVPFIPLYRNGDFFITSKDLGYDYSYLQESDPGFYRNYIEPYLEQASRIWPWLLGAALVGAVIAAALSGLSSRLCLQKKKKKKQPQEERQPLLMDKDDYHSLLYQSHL

Cavia porcellus [18] = test: Anti-melanogenic activity in guinea pig model of UV-induced skin pigmentation assessed as reduction in melanin production at 1 mM administered topically as CP formulation for 2 weeks measured after 3 days by Fontana-Masson staining based analysis; type: functional, organism-based; conditions: time 17.0 day

Structure (SMILES) | IC50 (Mushroom tyrosinase [1]) | IC50 (Mushroom tyrosinase [2]) | further results
COc1ccc(CCC(=O)c2ccc(O)cc2O)cc1OC | > 10 µM | > 10 µM | 
COc1ccc(C(=O)CCc2ccc(O)cc2O)cc1O | 0.245 µM | 0.069 µM | 
COc1ccc(C(=O)CCc2ccc(OC)cc2OC)cc1 | > 10 µM | > 10 µM | 
COc1cc(CCC(=O)c2ccc(O)cc2O)cc(OC)c1OC | > 10 µM | > 10 µM | 
O=C(CCc1cccc([N+](=O)[O-])c1)c1ccc(O)cc1O | > 10 µM | > 10 µM | 
COc1cccc(CCC(=O)c2ccc(O)cc2O)c1 | > 10 µM | > 10 µM | 
COc1ccc(CCC(=O)c2ccc(O)cc2O)c(OC)c1OC | > 10 µM | > 10 µM | 
Cc1cccc(C(=O)CCc2ccc(O)cc2O)c1 | 0.189 µM | 0.133 µM | 
COc1ccc(C(=O)CCc2ccc(O)cc2)c(O)c1 | > 10 µM | > 10 µM | 
COc1ccc(CCC(=O)c2ccc(O)cc2O)c(OC)c1 | > 10 µM | > 10 µM | 
O=C(CCc1ccc(O)cc1O)c1ccc(Br)cc1 | 0.184 µM | 0.11 µM | 
COc1ccc(C(=O)CCc2ccccc2O)cc1 | > 10 µM | > 10 µM | 
COc1cc(C(=O)CCc2ccc(O)cc2O)ccc1O | 0.165 µM | 0.054 µM | Activity (A-375 [3]): Non-Toxic; Activity (A-375 [4]): Active; Activity (B16-F10 [7]): Dose-Dependent Effect; Activity (B16-F10 [10]): Non-Toxic; inhibition [16]: Active; inhibition [17]: Dose-Dependent Effect
COc1ccc(C(=O)CCc2ccc(O)cc2O)cc1 | 0.171 µM | 0.089 µM | 
O=C(CCc1ccc(O)cc1O)c1ccc(-c2ccccc2)cc1 | 1.431 µM | 0.331 µM | 
COc1cccc(CCC(=O)c2ccc(O)cc2O)c1OC | > 10 µM | > 10 µM | 
CC(C)c1ccc(C(=O)CCc2ccc(O)cc2O)cc1 | 0.644 µM | 0.232 µM | 
COc1ccc(C(=O)CCc2ccc(O)cc2)cc1 | > 10 µM | > 10 µM | 
O=C(CCc1ccc(O)cc1O)c1ccc(Cl)cc1Cl | 0.189 µM | 0.119 µM | 

Second part, led by results:

IC50 (Mushroom tyrosinase [1]) | IC50 (Mushroom tyrosinase [2]) | Structure (SMILES) | further results
> 10 µM | > 10 µM | O=C(CCc1ccccc1O)c1ccc(O)cc1O | 
> 10 µM | > 10 µM | COc1ccc(CCC(=O)c2ccc(O)cc2O)c(O)c1 | 
> 10 µM | > 10 µM | COc1ccc(C(=O)CCc2ccccc2O)c(O)c1 | 
> 10 µM | > 10 µM | Cc1ccccc1CCC(=O)c1ccc(O)cc1O | 
0.286 µM | 0.069 µM | O=C(CCc1ccc(O)cc1O)c1ccccc1O | 
0.183 µM | 0.069 µM | COc1ccc(C(=O)CCc2ccc(O)cc2O)c(O)c1 | 
> 10 µM | > 10 µM | O=C(CCc1ccc(O)c(O)c1)c1ccc(O)cc1O | 
0.064 µM | 0.05 µM | O=C(CCc1ccc(O)cc1O)c1ccc(O)cc1O | Activity (A-375 [3]): Toxic; Activity (A-375 [4]): Active; Activity [5]: 3.56%; Activity [6]: 1.2%; Activity (B16-F10 [7]): Dose-Dependent Effect; Activity (B16-F10 [8]): Dose-Dependent Effect; Activity (Cavia porcellus [9]): Active; Activity (B16-F10 [10]): Non-Toxic; Activity [11]: 26.77%; Activity (Cavia porcellus [12]): Dose-Dependent Effect; Activity (B16-F10 [13]): Dose-Dependent Effect; Activity (Cavia porcellus [14]): Dose-Dependent Effect; Drug uptake [15]: Active; inhibition [16]: Active; inhibition [17]: Dose-Dependent Effect; Activity (Cavia porcellus [18]): Active
0.625 µM | 0.183 µM | O=C(CCc1ccc(O)cc1O)c1ccccc1 | 
> 10 µM | > 10 µM | O=C(CCc1ccc(O)cc1)c1ccc(O)cc1O [DAVIDIGENIN] | 
0.212 µM | 0.072 µM | O=C(CCc1ccc(O)cc1O)c1ccc(O)cc1 | 
> 10 µM | > 10 µM | O=C(CCc1cccc(O)c1)c1ccc(O)cc1O | 
0.239 µM | 0.123 µM | Cc1ccccc1C(=O)CCc1ccc(O)cc1O | 
> 10 µM | > 10 µM | COc1ccc(CCC(=O)c2ccc(O)cc2O)cc1O | 

Reference: ChEMBL document CHEMBL5380822, “Design, Synthesis, and Biological Evaluation of Novel Hybrids Containing Dihydrochalcone as Tyrosinase Inhibitors to Treat Skin Hyperpigmentation” (J Med Chem, 2023)
